Experimental data reported in paper PMC10746543, “Design principles for cyclin K molecular glue degraders” (Nature Chemical Biology, 2023).
Where “and” joins values, the source holds several entries; their conditions need not be identical. Identical values can stand only once. Like-named read-outs stand apart in the source and are kept apart here.

Key:
[1] = test system: HEK293T cells; experiment: Drug sensitivity assay (CellTiter-Glo viability) with or without MLN4924 pretreatment; type: cell-based, human; details: for EC50: Homo sapiens, HEK-293T
How it was run: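 HEK293T–Cas9, 0.15 × 10^6 ml^−1; pretreat DMSO vs 100 nM MLN4924; drugs dispensed after 2 h; 3 d exposure; CellTiter-Glo; viability vs DMSO control.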

[2] = target: T1, CDK2–cyclin A (Homo sapiens, UniProt P24941); experiment: Lanthascreen kinase binding assay, CDK2; details: for Lanthascreen signal, sheet CDK2: raw replicates, experiment r36-r46
T1 construct: purchased Thermo Fisher
Procedure: (§1) Lanthascreen experiments were performed using commercially available reagents (Thermo Fisher) and according to the manufacturer’s instructions.

[3] = target: CDK12–cyclin K (Homo sapiens, UniProt Q9NYV4); experiment: Lanthascreen kinase binding assay, CDK12; details: for Lanthascreen raw signal, sheet CDK12: series r37, duplicates
Procedure: as §1

[4] = target: T2, CDK12–cyclin K and DDB1 (Homo sapiens, UniProt Q16531+Q9NYV4, K965R); experiment: TR-FRET ternary complex formation assay (compound titration); type: binding
T2 construct: His6–CDK12 (a.a. 713–1,052); full-length or beta-propeller B domain deletion (ΔBPB: a.a. 396–705 deleted) constructs of His6–DDB1ΔBPB, StrepII–Avi–DDB1, or His6–Spy–DDB1; made in house; host or cells: Trichoplusia ni High Five insect cells (baculovirus)
How it was run: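 Signal was the ratio of 520 nm to 490 nm fluorescence, measured after a 70 μs delay that reduced background.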

[5] = target: T3, CDK9–cyclin T (Homo sapiens, UniProt P50750); experiment: Lanthascreen kinase binding assay, CDK9; details: for Lanthascreen TR-FRET signal (raw ratio), sheet CDK9: third titration set (r25), duplicates
T3 construct: purchased Thermo Fisher
Procedure: as §1

[6] = test system: cyclin K–eGFP degradation reporter; experiment: Cyclin K reporter stability analysis (dual-color cyclin K–eGFP reporter); type: cell-based, human; details: source data sheet correlations; read-out: DC50
How it was run: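 A 5 h treatment of HEK293T–Cas9 cells expressing the degradation reporter preceded flow cytometry; eGFP over mCherry, normalized to DMSO.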

T3 sequence (P50750 whole entry): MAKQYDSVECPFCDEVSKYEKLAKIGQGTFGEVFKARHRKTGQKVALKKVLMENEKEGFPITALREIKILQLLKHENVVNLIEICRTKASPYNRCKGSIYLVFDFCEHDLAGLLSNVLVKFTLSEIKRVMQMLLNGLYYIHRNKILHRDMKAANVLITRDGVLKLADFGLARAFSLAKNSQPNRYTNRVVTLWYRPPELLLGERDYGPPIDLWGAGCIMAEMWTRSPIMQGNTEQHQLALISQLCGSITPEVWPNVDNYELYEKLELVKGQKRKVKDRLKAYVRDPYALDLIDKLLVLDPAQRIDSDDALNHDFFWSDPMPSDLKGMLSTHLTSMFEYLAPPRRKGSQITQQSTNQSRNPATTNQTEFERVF
T3 sequence (O60563 whole entry partner): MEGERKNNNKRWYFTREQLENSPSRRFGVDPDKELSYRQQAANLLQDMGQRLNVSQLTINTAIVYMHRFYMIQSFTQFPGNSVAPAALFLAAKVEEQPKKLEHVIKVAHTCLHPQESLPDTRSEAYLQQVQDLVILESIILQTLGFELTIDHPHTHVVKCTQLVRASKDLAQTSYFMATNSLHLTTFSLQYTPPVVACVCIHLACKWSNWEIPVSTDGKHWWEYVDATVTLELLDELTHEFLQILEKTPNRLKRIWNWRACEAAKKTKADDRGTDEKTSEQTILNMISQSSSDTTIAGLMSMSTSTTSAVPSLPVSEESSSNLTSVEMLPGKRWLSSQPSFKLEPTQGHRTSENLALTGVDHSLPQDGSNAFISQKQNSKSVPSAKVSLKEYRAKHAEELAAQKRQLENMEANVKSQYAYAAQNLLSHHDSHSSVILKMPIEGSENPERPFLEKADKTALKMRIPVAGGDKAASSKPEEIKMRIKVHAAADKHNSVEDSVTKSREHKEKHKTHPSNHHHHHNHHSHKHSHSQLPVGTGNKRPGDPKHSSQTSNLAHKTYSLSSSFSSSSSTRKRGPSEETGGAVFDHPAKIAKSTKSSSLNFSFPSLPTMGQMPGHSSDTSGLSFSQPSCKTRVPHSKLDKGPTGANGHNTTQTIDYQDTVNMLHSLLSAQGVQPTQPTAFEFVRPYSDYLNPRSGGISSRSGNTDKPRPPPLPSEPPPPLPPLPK
T2 sequence (Q9NYV4 713-1052 K965R): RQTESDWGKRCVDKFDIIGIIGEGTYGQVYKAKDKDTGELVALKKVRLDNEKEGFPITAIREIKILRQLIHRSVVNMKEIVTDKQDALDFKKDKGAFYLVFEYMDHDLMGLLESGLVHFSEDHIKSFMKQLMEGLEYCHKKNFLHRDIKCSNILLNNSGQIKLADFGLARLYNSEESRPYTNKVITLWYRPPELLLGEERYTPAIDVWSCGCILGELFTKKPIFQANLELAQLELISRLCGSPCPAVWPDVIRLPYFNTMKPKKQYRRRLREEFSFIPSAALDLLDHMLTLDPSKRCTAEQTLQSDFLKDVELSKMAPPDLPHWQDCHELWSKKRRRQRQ
T2 sequence (O75909 1-267 partner): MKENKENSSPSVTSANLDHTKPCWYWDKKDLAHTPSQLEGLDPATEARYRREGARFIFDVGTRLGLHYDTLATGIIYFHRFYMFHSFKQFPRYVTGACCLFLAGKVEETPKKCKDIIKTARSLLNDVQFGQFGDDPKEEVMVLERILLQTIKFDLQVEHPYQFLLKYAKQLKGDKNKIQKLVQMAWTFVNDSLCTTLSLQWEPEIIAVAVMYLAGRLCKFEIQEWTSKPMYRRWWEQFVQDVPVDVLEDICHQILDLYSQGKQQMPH
T2 sequence (Q16531 whole entry): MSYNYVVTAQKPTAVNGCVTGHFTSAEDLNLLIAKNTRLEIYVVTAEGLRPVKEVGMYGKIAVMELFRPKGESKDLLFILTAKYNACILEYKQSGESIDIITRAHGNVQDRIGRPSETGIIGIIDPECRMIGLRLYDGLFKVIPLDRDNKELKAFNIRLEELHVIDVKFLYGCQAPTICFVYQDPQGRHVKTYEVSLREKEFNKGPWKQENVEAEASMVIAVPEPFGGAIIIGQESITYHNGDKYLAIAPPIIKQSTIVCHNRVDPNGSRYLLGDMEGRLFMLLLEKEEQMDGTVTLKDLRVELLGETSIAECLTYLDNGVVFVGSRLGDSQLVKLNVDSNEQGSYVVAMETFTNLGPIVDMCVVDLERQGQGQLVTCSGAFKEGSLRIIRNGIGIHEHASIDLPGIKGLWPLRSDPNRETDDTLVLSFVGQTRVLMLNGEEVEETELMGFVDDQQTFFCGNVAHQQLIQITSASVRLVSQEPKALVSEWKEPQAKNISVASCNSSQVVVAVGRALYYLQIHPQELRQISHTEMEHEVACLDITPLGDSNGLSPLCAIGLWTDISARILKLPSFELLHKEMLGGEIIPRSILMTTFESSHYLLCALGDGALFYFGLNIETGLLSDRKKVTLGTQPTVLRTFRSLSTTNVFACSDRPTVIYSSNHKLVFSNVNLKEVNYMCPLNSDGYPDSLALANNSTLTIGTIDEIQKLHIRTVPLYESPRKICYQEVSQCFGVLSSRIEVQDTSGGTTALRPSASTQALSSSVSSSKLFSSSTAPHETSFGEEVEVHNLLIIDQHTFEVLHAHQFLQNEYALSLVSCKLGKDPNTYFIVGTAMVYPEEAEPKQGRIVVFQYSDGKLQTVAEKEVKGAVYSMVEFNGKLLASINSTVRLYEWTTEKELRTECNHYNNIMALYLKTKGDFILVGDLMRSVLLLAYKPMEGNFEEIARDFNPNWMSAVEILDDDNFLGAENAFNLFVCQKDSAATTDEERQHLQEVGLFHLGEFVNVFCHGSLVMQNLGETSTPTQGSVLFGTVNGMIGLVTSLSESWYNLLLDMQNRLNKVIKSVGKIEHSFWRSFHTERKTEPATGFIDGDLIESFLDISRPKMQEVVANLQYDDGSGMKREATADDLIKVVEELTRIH
Chain of CDK12–cyclin K (Q9NYV4 713-1052): as the sequence (Q9NYV4 713-1052 K965R) above, with R253K counted along it
Chain of CDK12–cyclin K (O75909 1-267 partner limits assumed): as the sequence (O75909 1-267 partner) above

- Lanthascreen signal, sheet CDK2 ([2]; Compound 0.038147 nM): 0.01393 and 0.01328
- Lanthascreen signal, sheet CDK2 ([2]; Compound 0.152588 nM): 0.01386 and 0.01382
- Lanthascreen signal, sheet CDK2 ([2]; Compound 0.610352 nM): 0.01425 and 0.01382
- Lanthascreen signal, sheet CDK2 ([2]; Compound 9.76563 nM): 0.01432 and 0.01375
- Lanthascreen signal, sheet CDK2 ([2]; Compound 39.0625 nM): 0.01417 and 0.01371
- Lanthascreen signal, sheet CDK2 ([2]; Compound 156.25 nM): 0.01414 and 0.0141
- Lanthascreen signal, sheet CDK2 ([2]; Compound 625 nM): 0.01356 and 0.01358
- Lanthascreen signal, sheet CDK2 ([2]; Compound 2500 nM): 0.0127 and 0.009084
- Lanthascreen signal, sheet CDK2 ([2]; Compound 10000 nM): 0.01132 and 0.011
- IC50 ([2]; Lanthascreen, average, Extended Data Fig. 8, read-out: CDK2 IC50): > 10000 nM
- IC50 ([2]; Supplementary Table 2, read-out: Lanthascreen IC50 [nM] CDK2): > 10000 nM
- IC50 ([3]; Supplementary Table 2, read-out: Lanthascreen IC50 [nM] CDK12): 2860 nM
- Lanthascreen raw signal, sheet CDK12 ([3]; compound 0.038147 nM): 0.01384 and 0.01435
- Lanthascreen raw signal, sheet CDK12 ([3]; compound 0.152588 nM): 0.01397 and 0.0142
- Lanthascreen raw signal, sheet CDK12 ([3]; compound 0.610352 nM): 0.015 and 0.01469
- Lanthascreen raw signal, sheet CDK12 ([3]; compound 9.76563 nM): 0.01433 and 0.01471
- Lanthascreen raw signal, sheet CDK12 ([3]; compound 39.0625 nM): 0.01481 and 0.01445
- Lanthascreen raw signal, sheet CDK12 ([3]; compound 156.25 nM): 0.01408 and 0.01362
- Lanthascreen raw signal, sheet CDK12 ([3]; compound 625 nM): 0.01314 and 0.0125
- Lanthascreen raw signal, sheet CDK12 ([3]; compound 2500 nM): 0.01076 and 0.01056
- Lanthascreen raw signal, sheet CDK12 ([3]; compound 10000 nM): 0.008221 and 0.008078
- TR-FRET signal at compound concentration 4.68 nM ([4]; compound concentration 4.68 nM, raw replicate titration data): 0.1432 and 0.1661
- TR-FRET signal at compound concentration 21.6 nM ([4]; compound concentration 21.6 nM, raw replicate titration data): 0.2041 and 0.2174
- TR-FRET signal at compound concentration 36 nM ([4]; compound concentration 36 nM, raw replicate titration data): 0.3026 and 0.3362
- TR-FRET signal at compound concentration 79.2001 nM ([4]; compound concentration 79.2001 nM, raw replicate titration data): 0.4985 and 0.5183
- TR-FRET signal at compound concentration 158.4 nM ([4]; compound concentration 158.4 nM, raw replicate titration data): 0.7975 and 0.8115
- TR-FRET signal at compound concentration 309.6 nM ([4]; compound concentration 309.6 nM, raw replicate titration data): 1.104 and 1.124
- TR-FRET signal at compound concentration 626.401 nM ([4]; compound concentration 626.401 nM, raw replicate titration data): 1.537 and 1.587
- TR-FRET signal at compound concentration 1252.8 nM ([4]; compound concentration 1252.8 nM, raw replicate titration data): 1.789 and 1.917
- TR-FRET signal at compound concentration 2448 nM ([4]; compound concentration 2448 nM, raw replicate titration data): 1.994 and 2.074
- TR-FRET signal at compound concentration 9936.01 nM ([4]; compound concentration 9936.01 nM, raw replicate titration data): 2.1 and 2.149
- TR-FRET signal at compound concentration 20016 nM ([4]; compound concentration 20016 nM, raw replicate titration data): 2.044 and 2.1355
- DDB1–CDK12 complex formation, result in words ([4]; in vitro TR-FRET): poorer glues
- EC50 ([4]; sheet MOESM7, read-out: log TR-FRET EC50 (converted)): 0.299 µM
- EC50 ([4]; source data sheet correlations, read-out: TR-FRET EC50): 0.299 µM
- IC50 ([5]; Supplementary Table 2, read-out: Lanthascreen IC50 [nM] CDK9): 953 nM
- Lanthascreen TR-FRET signal (raw ratio), sheet CDK9 ([5]; compound 0.038147 nM): 0.01926 and 0.02033
- Lanthascreen TR-FRET signal (raw ratio), sheet CDK9 ([5]; compound 0.152588 nM): 0.01912 and 0.02064
- Lanthascreen TR-FRET signal (raw ratio), sheet CDK9 ([5]; compound 0.610352 nM): 0.01926 and 0.02032
- Lanthascreen TR-FRET signal (raw ratio), sheet CDK9 ([5]; compound 9.76563 nM): 0.01956 and 0.02095
- Lanthascreen TR-FRET signal (raw ratio), sheet CDK9 ([5]; compound 39.0625 nM): 0.01859 and 0.0203
- Lanthascreen TR-FRET signal (raw ratio), sheet CDK9 ([5]; compound 156.25 nM): 0.01696 and 0.01861
- Lanthascreen TR-FRET signal (raw ratio), sheet CDK9 ([5]; compound 625 nM): 0.01333 and 0.0154
- Lanthascreen TR-FRET signal (raw ratio), sheet CDK9 ([5]; compound 2500 nM): 0.009112 and 0.01043
- Lanthascreen TR-FRET signal (raw ratio), sheet CDK9 ([5]; compound 10000 nM): 0.007018 and 0.007122
- DC50 [6]: 3.12 µM
SMILES: Cn1cc(-n2cnc3c(NCc4ccc(-c5ccccn5)cc4)nc(N4CCOCC4)nc32)cn1 [DS21]
- EC50 ([1]; Supplementary Fig. 5, HEK293T, CellTiter Glo, 72h, pre-treatment with 100 nM MLN4924, read-out: Viability EC50, with MLN4924): 4.86 µM
- EC50 ([1]; Supplementary Table 2, HEK293T viability, 72 h, compound alone, read-out: Cellular assays EC50): 4.94 µM
- Toxicity rescue ([1]; Supplementary Table 2, MLN4924-mediated cytotoxicity rescue, 10 µM used where n.d.): 102%
